Like-named read-outs stand apart in the source and are kept apart here.
How the values were obtained:
[1] = human study; cited from earlier work
[2] = rabbits; cited from earlier work
[3] = tested on: ApoA-1 gene; conditions: putatively mediated through Site S (PCT/CA03/01220); cited from earlier work
[4] = tested on: C. albicans; assay: Murine model for systemic candidiasis; format: in vivo; conditions: treated mice; fluconazole orally
Method: In addition, fungicidal compounds of the invention are efficacious in a murine model for systemic candidiasis. Fungicidal compounds of the invention prolong mean and median survival times of treated mice. The compounds are administered IP producing a similar survival pattern as that produced by the positive control compound fluconazole administered orally. […] Fungicidal compounds of the invention are also efficacious when administered orally to mice with an established systemic Candida infection. The compound given orally is similar in efficacy to fluconazole as measured by survival time, percent cures and kidney burden. Fungicidal compounds of the invention are also effective against systemic candidiasis caused by a strain of C. albicans resistant to fluconazole.

SMILES: O=C1CC(c2ccc(O)cc2)Oc2cc(O)cc(O)c21 (stereo not shown) [naringenin, 5,7-dihydroxy-2-(4-hydroxy-phenyl)-chroman-4-one]
- HDL [1]: increase HDL
- LDL [1]: no effect
- triglycerides [1]: no effect
- HDL [2]: no effect upon HDL
- LDL [2]: decrease LDL

SMILES: Oc1ccc(/C=C/c2cc(O)cc(O)c2)cc1 [resveratrol, 5-[(E)-2-(4-hydroxy-phenyl)-vinyl]-benzene-1,3-diol]
- transcription of apolipoprotein Al [3]: increase the transcription of apolipoprotein Al

SMILES: OC(Cn1cncn1)(Cn1cncn1)c1ccc(F)cc1F [fluconazole]
- recoverable colonies from the kidneys [4]: reduce recoverable colonies from the kidneys

Source: US20050080024A1, “Nitric oxide donating derivatives for the treatment of cardiovascular disorders” (priority 2002, published 2005)
